Experimental data as given in US7973047B2, “Beta-Secretase modulators and methods of use” (Amgen Inc., priority 2010, dated 2011).
pIC50: −log10 of the molar value.

These molecules were tested on Aβ40 in conditioned medium of cells stably expressing Amyloid Precursor Protein (APP) (assay: BACE cell-based assay: Aβ40 in conditioned medium by sandwich ELISA). Settings: cell based assay data, Table 4; unit inferred; read-out: Cell Assay.
Procedure, shortened: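 APP-stable cells grown 24 h in DMEM/10% FBS, then exposed to compounds for 24 h in a 10-point dose series starting at 100 or 10 μM, 0.1% DMSO final. Medium Aβ40 measured by pAb40/biotinylated 6E10 sandwich ELISA with Europium time-resolved fluorescence; IC50 from percent inhibition.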
For `CC(=O)N[C@@H](Cc1ccccc1)[C@H](O)CN[C@H]1CC2(CCC2)Oc2cnc(CC(C)(C)C)cc21` [compound 749], the pIC50 was 7.86.
`CC(=O)N[C@@H](Cc1cc(F)cc(Cl)c1)[C@H](O)CN[C@H]1CC2(CCC2)Oc2cnc(CC(C)(C)C)cc21` [compound 750] gave a pIC50 of 7.69.
`CC(=O)N[C@@H](Cc1cc(F)cc(Cl)c1)[C@H](O)CN[C@H]1CC2(CCC2)Oc2cnc(CC(C)(C)O)cc21` [compound 751] showed a pIC50 of 7.41.
Molecule `CC(=O)N[C@@H](Cc1cc(F)cc(Cl)c1)[C@H](O)CN[C@H]1CC2(CCC2)Oc2c1cc(CC(C)(C)C)nc2Cl` [compound 752] has a pIC50 of 7.38.
`CC(=O)N[C@@H](Cc1ccccc1)[C@H](O)CN[C@H]1CC2(CCC2)Oc2c1cc(CC(C)(C)C)nc2Cl` [compound 753] gave a pIC50 of 7.86.
`CC(=O)N[C@@H](Cc1ccccc1)[C@H](O)CN[C@H]1CC2(CCC2)Oc2c1cc(CC(C)(C)C)nc2N1CCOCC1` [compound 754] was tested, and the pIC50 was 7.28.
For `CC(=O)N[C@@H](Cc1ccccc1)[C@H](O)CN[C@H]1CC2(CCC2)Oc2c1cc(CC(C)(C)C)nc2N1CCCC1` [compound 755], the pIC50 was 8.19.
`CC(=O)N[C@@H](Cc1cc(F)cc(N(C)C)c1)[C@H](O)CN[C@H]1CC(C)(C)Oc2c1cc(CC(C)(C)C)nc2N(C)C` [compound 756] gave a pIC50 of 6.70.
`CC(=O)N[C@@H](Cc1cc(F)cc(Cl)c1)[C@H](O)CN[C@H]1CC(C)(C)Oc2c1cc(CC(C)(C)C)nc2N(C)C` [compound 757] gave a pIC50 of 7.16.
In the case of `CC(=O)N[C@@H](Cc1ccc(F)c(F)c1)[C@H](O)CN[C@H]1CC(C)(C)Oc2c1cc(CC(C)(C)C)nc2N1CCCC1` [compound 758], the pIC50 was 7.40.
With `CC(=O)N[C@@H](Cc1cc(F)cc(N(C)C)c1)[C@H](O)CN[C@H]1CC2(CCC2)Oc2ncc(CC(C)(C)C)cc21` [compound 759] the pIC50 was 7.75.
In the case of `CNc1nc(CC(C)(C)C)cc2c1OC(C)(C)C[C@@H]2NC[C@@H](O)[C@H](Cc1ccc(F)c(F)c1)NC(C)=O` [compound 760], the pIC50 was 7.95.
`CC(=O)N[C@@H](Cc1ccc(F)cc1)[C@H](O)CN[C@H]1CC(C)(C)Oc2c1cc(CC(C)(C)C)nc2Cl` [compound 761] gave a pIC50 of 6.90.
With `CC(=O)N[C@@H](Cc1ccc(F)cc1)[C@H](O)CN[C@H]1CC(C)(C)Oc2c1cc(CC(C)(C)C)nc2N(C)C` [compound 762] the pIC50 was 6.78.
`CC(=O)N[C@@H](Cc1cc(F)cc(Br)c1)[C@H](O)CN[C@H]1CC2(CCC2)Oc2ncc(CC(C)(C)C)cc21` [compound 763] showed a pIC50 of 8.19.
In the case of `CC(=O)N[C@@H](Cc1cc(F)cc(F)c1)[C@H](O)CN[C@H]1CC2(CC(C)C2)Oc2ncc(CC(C)(C)C)cc21` (stereo partly shown) [compound 764], the pIC50 was 8.81.
`CC(=O)N[C@@H](Cc1cc(F)cc(F)c1)[C@H](O)CN[C@H]1C[C@]2(C[C@H](C)C2)Oc2ncc(CC(C)(C)C)cc21` [compound 765, N-((1S,2R)-1-((3,5-difluorophenyl)methyl)-3-(((1s,3R,4′S)-6′-(2,2-dimethylpropyl)-3-methyl-3′,4′-dihydrospiro[cyclobutane-1,2′-pyrano[2,3-b]pyridin]-4′-yl)amino)-2-hydroxypropyl)acetamide] showed a pIC50 of 8.94.
Work on `CC(=O)N[C@@H](Cc1ccc(F)cc1)[C@H](O)CN[C@H]1CC2(CC(C)C2)Oc2ncc(CC(C)(C)C)cc21` (stereo partly drawn) [compound 766, N-((1S,2R)-3-(((4′S)-6′-(2,2-dimethylpropyl)-3-methyl-3′,4′-dihydrospiro[cyclobutane-1,2′-pyrano[2,3-b]pyridin]-4′-yl)amino)-1-((4-fluorophenyl)methyl)-2-hydroxypropyl)acetamide] yielded a pIC50 of 7.80.
In the case of `CC(=O)N[C@@H](Cc1ccc(F)cc1)[C@H](O)CN[C@H]1C[C@]2(C[C@H](C)C2)Oc2ncc(CC(C)(C)C)cc21` [compound 767, N-((1S,2R)-3-(((1s,3R,4′S)-6′-(2,2-dimethylpropyl)-3-methyl-3′,4′-dihydrospiro[cyclobutane-1,2′-pyrano[2,3-b]pyridin]-4′-yl)amino)-1-((4-fluorophenyl)methyl)-2-hydroxypropyl)acetamide], the pIC50 was 8.24.
